Measured values reported in patent publication US4255183A, “Substituted phenyl urea and herbicides for use in paddy field” (Hokko Chemical Industry Co., Ltd., priority 1977, dated 1981).
Read-outs that look alike come from different tables or passages of the source.

Legend:
[1] = system: paddy rice; test: Test Example 4: field test in submerged directly seeded paddy field, paddy rice; assay type: in vivo, paddy rice (Asahi species); details: Oryza sativa, 504 h; 300 g/10 are, emulsion, 2- to 3-leaf stage, 21 days after application
Description: (§1) In a Wagner pot of 1/500 are, paddy field soil (alluvial soil) was placed and 50 seeds of Echinochloa crus-galli var. oryzicola and 30 seeds of paddy rice were seeded in the surface layer of said soil and the submerging depth was kept at about 1 cm. When Echinochloa crus-galli var. oryzicola reached at the one leaf stage and 5-leaf stage, the emulsion of a predetermined concentration, prepared according to Example 4 was added dropwise. After 30 days from the treatment with the chemical, dry weights of Echinochloa crus-galli var. oryzicola and paddy rice were measured and the inhibition rate was calculated with reference to untreated area. [formula]
(§2) In a 10 m^2 paddy field, 30 g of Echinochloa crus-galli var. oryzicola seeds were seeded at the time of puddling and the depth of submerging was kept at 3-5 cm. 3 Days after the puddling, 50 g of paddy rice at the emergence stage (Asahi species) were seeded. When Echinochloa crus-galli var. oryzicola and paddy rice reached a 2- to 3-leaf stage, a predetermined dose of the emulsion prepared according to Example 4 was applied uniformly by means of a manual spraying machine. Test results were examined 21 days after the application of the chemicals in the similar manner as in Test Example 1.
(§3) The comparative chemical 1 used was that commercially available and the comparative chemical 2 used was prepared according to Example 4.

[2] = system: Echinochloa crus-galli var. oryzicola; test: Test Example 4: field test in submerged directly seeded paddy field, Echinochloa crus-galli var. oryzicola; assay type: in vivo; details: Echinochloa crus-galli, 504 h; 300 g/10 are, emulsion, 2- to 3-leaf stage, 21 days after application; read-out: Inhibition (%) of E. crus-galli var. oryzicola
Description: as §1, §2, §3

[3] = system: Bulrush; test: Test Example 5: Wagner pot test, herbicidal effect on Bulrush; assay type: in vivo; details: 600 g/10a
Description: (§4) In a 1/7500 are Wagner pot, sieved paddy field soil (alluvial soil) was charged. Thereafter, in the center portion of the pot, 2 roots of paddy rice (Asahi species) at the 2- to 3-leaf stage were transplanted and 20 seeds of Bulrush per pot were seeded in the surface of the above soil. The pot was submerged at the depth of about 2 cm. The other Dopatrium junceum and umbrella plant were generated naturally. After seeding, when each of the weeds reached the same leaf age as defined in Table 5 given herein, a predetermined concentration of the emulsion prepared according to Example 4 was applied dropwise on the surface of the pot. The test was carried out by repeating the same test three times per area and the results were determined 20 days after the application of the chemicals with regard to the herbicidal effect and chemical injury on paddy rice on the basis of the evaluation index as shown below.
(§5) As the comparative chemicals Molinate, Benthiocarb and DCMU, those commercially available were used.
(§6) In the above table, the inhibition rate was calculated according to the method as described in Test Example 1.

[4] = system: paddy rice; test: whole plant or invertebrate; assay type: in vivo, paddy rice (Asahi species); details: Oryza sativa, 720 h
Description: as §1
(§7) In a concrete pot of 1/400 are (50 cm×50 cm), paddy field soil (alluvial soil) was placed and 200 seeds of Echinochloa crus-galli var. oryzicola were seeded in 10 surface layer of said soil and the soil was submerged at about 3 cm depth. Before emergence of Echinochloa crus-galli var. oryzicola, paddy rice at 2.5-leaf stage (Asahi species) was transplanted at the rate of 8 stubs per pot, planting 3 seedlings per stub. At the one-leaf stage (3.5 leaves stage of paddy rice) and 5 leaves stage (7 leaves stage of paddy rice) of Echinochloa crus-galli var. oryzicola, the granule prepared according to Example 1 was applied. […] 30 Days after the treatment with the chemical, examination was made in the similar manner as Test Example 1 to obtain results as shown in Table 2.
(§8) In the table, as the comparative chemicals CPN, Benthiocarb, Molinate and Simetryne, those commercially available were used and the comparative chemicals A and B (as mentioned before) used were prepared according to the process for preparing the compound of this invention.

[5] = system: Dopatrium junceum; test: Test Example 5: Wagner pot test, herbicidal effect on Dopatrium junceum; assay type: in vivo; details: 600 g/10a
Description: as §4, §5, §6

[6] = system: Echinochloa crus-galli var. oryzicola; test: Test Example 2: concrete pot test on killing effect, Echinochloa crus-galli var. oryzicola; assay type: in vivo; details: Echinochloa crus-galli, 720 h
Description: as §1, §7, §8

[7] = system: paddy rice; test: Test Example 5: Wagner pot test, chemical injury on paddy rice; assay type: in vivo, paddy rice (Asahi species); details: 600 g/10a; further: key: 5: Completely killed; 4: Considerably injured; 3: Moderately injured; 2: A little injured; 1: Slightly injured; 0: Not injured
Description: as §4, §5

[8] = system: Umbrella plant; test: Test Example 5: Wagner pot test, herbicidal effect on umbrella plant; assay type: in vivo; details: 600 g/10a, 20 days after application
Description: as §4, §5, §6

[9] = leaf age 3, 20 days after application
[10] = read-out: Inhibition (%) by treatment at 1-leaf stage of E. crus-galli var. oryzicola, paddy rice
[11] = read-out: Inhibition (%) by treatment at 5-leaf stage of E. crus-galli var. oryzicola, paddy rice
[12] = read-out: Inhibition (%) by treatment at 1-leaf stage of E. crus-galli var. oryzicola, E. crus-galli var. oryzicola
[13] = read-out: Inhibition (%) by treatment at 5-leaf stage of E. crus-galli var. oryzicola, E. crus-galli var. oryzicola

CCN(CC)C(=O)SCc1ccc(Cl)cc1 [Benthiocarb, 4-chlorobenzyl-N,N-diethylthiolcarbamate]
inhibition at 3000 g/ha [1]: 15%
inhibition at 3000 g/ha [2]: 76%
Weed kill degree, Bulrush [3, 9]: 2 (60-79)
Weed kill degree, Bulrush ([3]; leaf age 3-5, 20 days after application): 4 (90-99)
inhibition at 1000 g/ha [4, 10]: 0%
inhibition at 3000 g/ha [4, 10]: 10%
inhibition at 9000 g/ha [4, 10]: 46%
inhibition at 1000 g/ha [4, 11]: 0%
inhibition at 3000 g/ha [4, 11]: 0%
inhibition at 9000 g/ha [4, 11]: 10%
Weed kill degree, Dopatrium junceum ([5]; leaf age 2, 20 days after application): 5 (100)
Weed kill degree, Dopatrium junceum [5, 9]: 5 (100)
inhibition at 1000 g/ha [6, 12]: 82%
inhibition at 3000 g/ha [6, 12]: 100%
inhibition at 9000 g/ha [6, 12]: 100%
inhibition at 1000 g/ha [6, 13]: 0%
inhibition at 3000 g/ha [6, 13]: 6%
inhibition at 9000 g/ha [6, 13]: 23%
Chemical injury on paddy rice ([7]; 3 tillers, 20 days after application): 0
Chemical injury on paddy rice [7, 9]: 2
Weed kill degree, Umbrella plant ([8]; leaf age 2 (first group of columns)): 5 (100)
Weed kill degree, Umbrella plant ([8]; leaf age 2 (second group of columns)): 5 (100)
